Reference: US5080906A, “Method and composition for oral administration of N-acetylcysteine” (Zambon Group, S.p.A., priority 1989, dated 1992)
Counter-ions that a name gives are not always drawn. Like-named read-outs stand apart in the source and are kept apart here.

Assays:
[1] = in vivo; design: species or system Male Beagle dogs; conditions: dog, po, 50 mg/kg
Protocol: (§1) Male Beagle dogs were fasted overnight and were divided into 4 groups of 4 animals each. The four groups were treated orally with different NAC solutions according to the following scheme: […] For each group of animals the dose of NAC ([…]) contained an amount of ^14 C-NAC equal to 20 μCi/kg. Blood samples were withdrawn by a heparinized syringe just before the treatment and 10, 20, 30, 45, 60, 120, 240, 360, 480 and 1,440 minutes after treatment. The blood samples were treated and stored according to the same procedure described in Example 1.

[2] = design: species or system Male Beagle dogs; conditions: dog, in vivo, po, 50 mg/kg
Protocol: as §1

[3] = THAM salt; result in words; cited from earlier work
[4] = Plasma level of unmodified NAC after oral administration of NAC solutions to rats (GC-MS); type: in vivo, Sprague Dawley rats; conditions: rat, 300 mg/kg NAC (100 μCi/kg 3H-NAC), 0-8 h, * p < 0.005 (Student's t) for NAC-THAM 1:1, read-out: AUC0-8 h, plasma NAC (total unmodified NAC)
Protocol: Sprague Dawley rats after overnight fast were divided into 7 groups of 33 animals each. These seven groups of animals were treated with different NAC solutions by oral route according to the following scheme: […] Blood samples were withdrawn just before the treatment and 15, 20, 45, 60, 90, 120, 240, 360, 480 and 1,440 minutes after treatment, via a heparinized syringe. The blood was immediately transferred into plastic tubes containing sodium dithionite (1 mg/5 μl) and 0.02N sodium EDTA (200 μl ). The plasma was separated by centrifugation at 5,000×g at 4° C. for 20 minutes and the samples thus obtained were stored at -20° C. until the analysis. […] The samples were kept at 37° C. for one hour and then an acetone:formic acid=4:1 (1 ml) mixture was added. The proteins were separated at 20,000×g for 20 minutes by centrifugation. To the supernatant 2M HCl (200 μl) was added and then the NAC was extracted twice with ethyl acetate (6 ml). […] At the end of the reaction, excess isopropanol was eliminated and the samples were reacted with 3:1 ethyl acetate:pentafluoropropionic anhydride (200 μl) at 60° C. for 30 minutes. […] In Table 1 the plasma concentrations of NAC, expressed as AUC0-8h, the total NAC detected expressed as g/l, are reported for each group of animals and treatment regimen.

[5] = Total radioactivity in plasma after oral 3H-NAC in rats; type: in vivo, Sprague Dawley rats; conditions: rat, 300 mg/kg NAC (100 μCi/kg 3H-NAC), 0-24 h
Protocol: Sprague Dawley rats after overnight fast were divided into 7 groups of 33 animals each. These seven groups of animals were treated with different NAC solutions by oral route according to the following scheme:
Group 1-NAC (300 mg/kg) dissolved in water (10 ml/kg)
Group 5-NAC (300 mg/kg) and THAM (222.7 mg/kg) dissolved in water (10 ml/kg); molar ratio 1:1
For each group of animals the NAC dose (300 mg/kg) contained ^3 H-NAC in an amount yielding 100 μCi/kg. Blood samples were withdrawn just before the treatment and 15, 20, 45, 60, 90, 120, 240, 360, 480 and 1,440 minutes after treatment, via a heparinized syringe. The blood was immediately transferred into plastic tubes containing sodium dithionite (1 mg/5 μl) and 0.02N sodium EDTA (200 μl ). The plasma was separated by centrifugation at 5,000×g at 4° C. for 20 minutes and the samples thus obtained were stored at -20° C. until the analysis.
Samples of plasma (50 μl) were added to Lumagel (10 ml), were stirred and were then allowed to stand in the scintillation counter (Beckman LS 8100) at 15° C. for 4 hours. Radioactivity was measured after the stabilization time.
The total radioactivity in plasma after administration of 300 mg/kg of NAC (containing 100 μCi/kg of ^3 H-NAC) (group 1) and after administration of the same amount of NAC with THAM in the ratio 1:1 (group 5) are reported in Table 2.

[6] = result in words; cited from earlier work

| SMILES | AUC0-.infin., plasma NAC (unmodified) [1] | amount of unmodified NAC in plasma compared with NAC alone [1] | total amount of absorbed NAC compared with NAC as such [2] | AUC0-24 h, total radioactivity in plasma [2] | bioavailability [3] | AUC(0-t) at 8 h [4] | AUC0-24 h, total radioactivity in plasma [5] | AUC(0-inf) ([1]; AUC0-.infin., plasma NAC (unmodified)) | solubility [6] |
| --- | --- | --- | --- | --- | --- | --- | --- | --- | --- |
| CC(=O)N[C@@H](CS)C(=O)O [NAC-lysinate, NAC lysinate] | 73.37 ± 10.33 mgh/l | do not provide plasma levels meaningfully different from those of NAC itself | not different | 1247.23 ± 185.18 mghl^-1 |  |  |  |  |  |
| C[C@@H]1O[C@@H]1P(=O)(O)O [THAM salt of the antibiotic Fosfomycin] |  |  |  |  | better bioavailability |  |  |  |  |
| CC(=O)N[C@@H](CS)C(=O)O [NAC, N-acetylcysteine] |  |  |  | 1864.13 ± 856.57 mghl^-1 |  | 105000 ± 3000 ng·h/mL | 4048.3 ± 105.9 mgh/l | 57500 ± 7290 ng·h/mL | soluble |
